Test results: patent US20190105367A1, “ANTIMICROBIAL 4-OXOQUINOLIZINES” (Emergent Product Development Gaithersburg Inc., priority 2011, published 2019)
Values after ≈ are worked out from the molar mass of the structure shown.

Tests used:
[1] = tested on: strains of A. baumannii and one strain of Acinetobacter sp.; assay: MIC with sub-inhibitory concentrations (0.25x MIC) of polymyxin B, panel of Acinetobacter strains (Example 4); assay type: cell-based; conditions: 1st experiment; […] polymyxin B; ATCC 19606, A329, A390 and A473 not taken
A. baumannii ATCC 19606 [2] = assay: MIC without and with sub-inhibitory polymyxin B (Example 4); assay type: cell-based, Acinetobacter baumannii; conditions: 1st experiment
A. baumannii ATCC 19606 [3] = assay: Preliminary MBC without and with sub-inhibitory polymyxin B (Example 4); assay type: cell-based, Acinetobacter baumannii; conditions: Acinetobacter baumannii, ATCC19606, read-out: MBC +0.06 μg/ml PB, A. baumannii ATCC 19606, +0.06 μg/ml polymyxin B, 1st experiment
A. baumannii J2 [4] = assay: MIC without and with sub-inhibitory polymyxin B (Example 4); assay type: cell-based, Acinetobacter baumannii; conditions: 1st experiment
A. baumannii J2 [5] = assay: Preliminary MBC without and with sub-inhibitory polymyxin B (Example 4); assay type: cell-based, Acinetobacter baumannii; conditions: Acinetobacter baumannii, J2, read-out: MBC +[…] PB, A. baumannii J2; +[…] polymyxin B; preliminary MBC; 1st experiment
[6] = tested on: Acinetobacter sp. (H064200250); assay: MIC without and with sub-inhibitory polymyxin B (Example 4); assay type: cell-based; conditions: 1st experiment
[7] = tested on: Acinetobacter sp. (H064200250); assay: Preliminary MBC without and with sub-inhibitory polymyxin B (Example 4); assay type: cell-based; conditions: Acinetobacter, read-out: MBC +[…] PB, Acinetobacter spp. H064200250; +[…] polymyxin B; preliminary MBC; 1st experiment
Experimental: (§1) The plates were incubated for 18-20 hours at 37° C. The MBC was read as the lowest concentration at which colony growth was ca. 90% less than the positive control (i.e. usually where single colonies or no colonies were observed).

A. baumannii A387 [8] = assay: MIC without and with sub-inhibitory polymyxin B (Example 4); assay type: cell-based, Acinetobacter baumannii; conditions: 1st experiment
A. baumannii A387 [9] = assay: Preliminary MBC without and with sub-inhibitory polymyxin B (Example 4); assay type: cell-based, Acinetobacter baumannii; conditions: Acinetobacter baumannii, A387, read-out: MBC +0.06 μg/ml PB, A. baumannii A387, +0.06 μg/ml polymyxin B, 1st experiment
A. baumannii NCTC 13301 [10] = assay: as above; assay type: cell-based, Acinetobacter baumannii; conditions: Acinetobacter baumannii, NCTC13301, read-out: MBC +[…] PB
Experimental: as §1

A. baumannii A401 [11] = assay: MIC without and with sub-inhibitory polymyxin B (Example 4); assay type: cell-based, Acinetobacter baumannii; conditions: 1st experiment
A. baumannii A401 [12] = assay: Preliminary MBC without and with sub-inhibitory polymyxin B (Example 4); assay type: cell-based, Acinetobacter baumannii; conditions: Acinetobacter baumannii, A401, read-out: MBC +0.06 μg/ml PB, A baumannii A 401, +0.06 μg/ml polymyxin B, 1st experiment
A. baumannii A472 [13] = assay: MIC without and with sub-inhibitory polymyxin B (Example 4); assay type: cell-based, Acinetobacter baumannii; conditions: 1st experiment
A. baumannii A472 [14] = assay: Preliminary MBC without and with sub-inhibitory polymyxin B (Example 4); assay type: cell-based, Acinetobacter baumannii; conditions: Acinetobacter baumannii, A472, read-out: MBC +[…] PB, A. baumannii A472; +[…] polymyxin B; preliminary MBC; 1st experiment
A. baumannii A489 [15] = assay: MIC without and with sub-inhibitory polymyxin B (Example 4); assay type: cell-based, Acinetobacter baumannii; conditions: 1st experiment
A. baumannii A489 [16] = assay: Preliminary MBC without and with sub-inhibitory polymyxin B (Example 4); assay type: cell-based, Acinetobacter baumannii; conditions: Acinetobacter baumannii, A489, read-out: MBC +[…] PB, A. baumannii A489; +[…] polymyxin B; preliminary MBC; 1st experiment
A. baumannii NCTC 13301 [17] = assay: MIC without and with sub-inhibitory polymyxin B (Example 4); assay type: cell-based, Acinetobacter baumannii
A. baumannii A14 [18] = assay: as above; assay type: cell-based, Acinetobacter baumannii; conditions: 1st experiment
A. baumannii A14 [19] = assay: Preliminary MBC without and with sub-inhibitory polymyxin B (Example 4); assay type: cell-based, Acinetobacter baumannii; conditions: A. baumannii A14, preliminary MBC, 1st experiment
[20] = tested on: GN31 Acinetobacter baumannii antibiotic susceptible isolate; assay: Chequerboard synergy with polymyxin B, FICI (Example 6); assay type: cell-based
Excerpt: (§2) A chequerboard technique was used to identify possible synergistic or antagonistic interactions between the 4-oxoquinolizines compounds, levofloxacin and polymyxin B. Levofloxacin was included as a control. […] Final dilutions were made in Mueller-Hinton broth, the specific test medium used for MIC determinations according to CLSI guidelines (CLSI. Methods for Dilution Antimicrobial Susceptibility Tests for Bacteria That Grow Aerobically; Approved Standard-Eighth Edition (2009). CLSI Document M07-A8. CLSI, Wayne, Pa. 19087-1898, USA.). The test medium used was a cation-adjusted Mueller-Hinton Broth II (Becton Dickinson UK Ltd., Oxford Science Park, Oxford, UK, OX4 4DQ).
(§3) The compounds 2, 33 and 35, as well as levofloxacin were tested in combination with polymyxin B on the following isolates: GN31 Acinetobacter baumannii—antibiotic susceptible clinical isolate, GN52 Acinetobacter baumannii—levofloxacin resistant clinical isolate, GN56 Acinetobacter baumannii—levofloxacin resistant clinical isolate, GN48 Klebsiella pneumoniae—NCTC 13443—NDM-1-metallo-β-lactamase and GN10 Pseudomonas aeruginosa—ATCC 27853—antibiotic susceptible reference isolate. All isolates are from the collection maintained at Quotient Bioresearch Ltd., Cambridge, UK.
(§4) The MIC values for the compounds and polymyxin B and levofloxacin were determined by broth microdilution following CLSI guidelines, and the MICs of agents in combination were determined as described by Pillai et. al (Pillai S K, Moellering R C Jr, Eliopoulis G M; Antimicrobial Combinations in Antibiotics in Laboratory Medicine 5th Edition (V. Lorian Ed) (2005) p 365-440). Initial MIC results were used to determine the microtiter plate patterns for the chequerboards. A suitable doubling dilution concentration range was selected such that the combination antibiotic range was at least two concentrations above and four concentrations below the MIC for each isolate. A fixed range of 0.008 to 8 mg/L was tested for polymyxin B except in the case of A. baumannii GN31 where a range of 0.004 to 4 mg/L was tested when in combination with the compounds 2, 33 and 35 as well as levofloxacin.
(§5) From the raw data, fractional inhibitory concentration indices (FICI) were determined for the compounds of the invention and levofloxacin together with polymyxin B for each isolate as follows:
(§6) FICX=concentration of the combination antibiotic in a particular row MIC of the combination drug alone
(§7) FICY=MIC of polymyxin B in combination[…]MIC of the polymyxin B alone
(§8) Additionally isobolograms were created to represent the same data visually. Here, the MIC of polymyxin B was plotted against every concentration of the combination antibiotic up to the MIC.

[21] = tested on: GN48 Klebsiella pneumoniae NCTC 13443 NDM-1-β-lactamase producing isolate; assay: as above; assay type: cell-based
Excerpt: as §2, §3, §4, §5, §6, §7, §8

[22] = tested on: GN52 Acinetobacter baumannii levofloxacin resistant clinical isolate; assay: as above; assay type: cell-based
Excerpt: as §2, §3, §4, §5, §6, §7, §8

[23] = tested on: GN56 Acinetobacter baumannii levofloxacin resistant clinical isolate; assay: as above; assay type: cell-based
Excerpt: as §2, §3, §4, §5, §6, §7, §8

[24] = tested on: S. aureus ATCC 43300 (MRSA, FQ-S); assay: MIC, selected panel of bacterial strains (Example 5); assay type: cell-based, Staphylococcus aureus; conditions: Staphylococcus aureus, read-out: MICs against Gram positive bacteria S. aureus ATCC 43300 (MRSA, FQ-S)
[25] = in combination with polymyxin B
[26] = polymyxin B with the named antibiotic

## Cc1c(-c2ccc(N)c(F)c2)c(F)cn2c(=O)c(C(=O)O)cc(C3CC3)c12 [Compound 17, 8-(3-fluoro-4-amino-phenyl)-1-cyclopropyl-7-fluoro-9-methyl-4-oxo-quinolizine-3-carboxylic acid]
[1]
  MIC range with PB (0.25x MIC) Oct. 1, 2008 n = 8: ≤0.03 to 1 µg/mL
A. baumannii ATCC 19606 [2]; A. baumannii ATCC 19606, ratio, PB 0.06 μg/ml
  MIC without PB/MIC + PB: ≥16
A. baumannii ATCC 19606 [2]; Acinetobacter baumannii, ATCC19606, read-out: MIC +0.06 μg/ml PB, A. baumannii ATCC 19606, +0.06 μg/ml polymyxin B
  MIC: ≤ 0.03 µg/mL
A. baumannii ATCC 19606 [3]
  MBC: ≤ 0.03 µg/mL
A. baumannii J2 [4]; A. baumannii J2, ratio, PB […]
  MIC without PB/MIC + PB: 64
A. baumannii J2 [4]; Acinetobacter baumannii, J2, read-out: MIC +[…] PB, A. baumannii J2, +[…] polymyxin B
  MIC: 0.06 µg/mL (≈ 0.162 µM)
A. baumannii J2 [5]
  MBC: 0.06 µg/mL (≈ 0.162 µM)
[6]; Acinetobacter spp. H064200250, ratio, PB […]
  MIC without PB/MIC + PB: 128
[6]; Acinetobacter, read-out: MIC +[…] PB, Acinetobacter spp. H064200250, +[…] polymyxin B
  MIC: 0.06 µg/mL (≈ 0.162 µM)
[7]
  MBC: 0.06 µg/mL (≈ 0.162 µM)
A. baumannii A387 [8]; A. baumannii A387, ratio, PB 0.06 μg/ml
  MIC without PB/MIC + PB: ≥32
A. baumannii A387 [8]; Acinetobacter baumannii, A387, read-out: MIC +0.06 μg/ml PB, A. baumannii A387, +0.06 μg/ml polymyxin B
  MIC: ≤ 0.03 µg/mL
A. baumannii A387 [9]
  MBC: ≤ 0.03 µg/mL
A. baumannii NCTC 13301 [10]
  MBC: ≤ 0.03 µg/mL
A. baumannii A401 [11]; A baumannii A 401, ratio, PB 0.06 μg/ml
  MIC without PB/MIC + PB: 8
A. baumannii A401 [11]; Acinetobacter baumannii, A401, read-out: MIC +0.06 μg/ml PB, A baumannii A 401, +0.06 μg/ml polymyxin B
  MIC: 0.5 µg/mL
A. baumannii A401 [12]
  MBC: 0.5 µg/mL
A. baumannii A472 [13]; A. baumannii A472, ratio, PB […]
  MIC without PB/MIC + PB: ≥128
A. baumannii A472 [13]; Acinetobacter baumannii, A472, read-out: MIC +[…] PB, A. baumannii A472, +[…] polymyxin B
  MIC: ≤ 0.03 µg/mL
A. baumannii A472 [14]
  MBC: 0.125 µg/mL (≈ 0.338 µM)
A. baumannii A489 [15]; A. baumannii A489, ratio, PB […]
  MIC without PB/MIC + PB: ≥256
A. baumannii A489 [15]; Acinetobacter baumannii, A489, read-out: MIC +[…] PB, A. baumannii A489, +[…] polymyxin B
  MIC: ≤ 0.03 µg/mL
A. baumannii A489 [16]
  MBC: ≤ 0.03 µg/mL
A. baumannii NCTC 13301 [17]; A. baumannii NCTC 13301, ratio, PB […], 1st experiment
  MIC without PB/MIC + PB: ≥512
A. baumannii NCTC 13301 [17]; Acinetobacter baumannii, NCTC13301, read-out: MIC +[…] PB
  MIC: ≤ 0.03 µg/mL
A. baumannii A14 [18]; +0.06 μg/ml polymyxin B
  MIC +0.06 μg/ml PB: 1 µg/mL
A. baumannii A14 [18]; Acinetobacter baumannii, 24 h, without polymyxin B, read-out: MIC without PB
  MIC: 16 µg/mL (≈ 43.2 µM)
A. baumannii A14 [18]; ratio, PB 0.06 μg/ml
  MIC without PB/MIC + PB: 16
A. baumannii A14 [19]; +0.06 μg/ml polymyxin B
  MBC +0.06 μg/ml PB: 1 µg/mL
A. baumannii A14 [19]; Acinetobacter baumannii, without polymyxin B, read-out: MBC without PB
  MBC: 16 µg/mL (≈ 43.2 µM)

## Cc1c(-c2ccc3[nH]ncc3c2)ccn2c(=O)c(C(=O)O)cc(C3CC3)c12 [Compound 35, 8-(1H-indazol-5-yl)-1-cyclopropyl-9-methyl-4-oxo-quinolizine-3-carboxylic acid]
[20]
  Combination drug MIC alone: 0.03 µg/mL
  FICx: 0.13
  FICy: 0.48
[20]; combination with polymyxin B
  FICI: 0.61
  Synergy: Partial synergy (partial synergy/addition (FICI 0.51 to 0.75))
[20]; [25]
  Combination drug concentration in combination: 0.004 mg/L
[20]; [26]
  Polymyxin B MIC in combination: 0.12 µg/mL
[21]
  FICx: 0.06
  FICy: 0.50
[21]; combination with polymyxin B
  FICI: 0.56
  Synergy: Partial synergy (partial synergy/addition (FICI 0.51 to 0.75))
[21]; combination with polymyxin B, listed as compound 35
  Synergy: partial synergy
[21]; [25]
  Combination drug concentration in combination: 1 mg/L
[21]; [26]
  Polymyxin B MIC in combination: 0.25 µg/mL
[22]
  Combination drug MIC alone: 2 µg/mL
  FICx: 0.25
  FICy: 0.24
[22]; combination with polymyxin B
  FICI: 0.49
  Synergy: Synergy (Synergy (FICI <0.5))
[22]; [25]
  Combination drug concentration in combination: 0.5 mg/L
[22]; [26]
  Polymyxin B MIC in combination: 0.12 µg/mL
[23]
  Combination drug MIC alone: 8 µg/mL
  FICx: 0.06
  FICy: 0.50
[23]; combination with polymyxin B
  FICI: 0.56
  Synergy: Partial synergy (partial synergy/addition (FICI 0.51 to 0.75))
[23]; [25]
  Combination drug concentration in combination: 0.5 mg/L
[23]; [26]
  Polymyxin B MIC in combination: 0.25 µg/mL

## Cc1c(-c2ccc(N)nc2)c(F)cn2c(=O)c(C(=O)[O-])cc(C3CC3)c12.[K+] [Compound 60K salt, potassium 8-(6-aminopyridin-3-yl)-1-cyclopropyl-7-fluoro-9-methyl-4-oxo-4H-quinolizine-3-carboxylate]
[24]
  MIC: < 0.004 µg/mL

## Cc1c(C2=CCNCC2)c(F)cn2c(=O)c(C(=O)[O-])cc(C3CC3)c12.[K+] [Compound 62K salt, potassium 8-(1,2,3,6-tetrahydropyridin-4-yl)-1-cyclopropyl-7-fluoro-9-methyl-4-oxo-4H-quinolizine-3-carboxylate]
[24]
  MIC: 0.125 µg/mL
